Measurements as given in patent US20150119410A1, “BIOMARKERS OF RESPONSE TO NAE INHIBITORS” (MILLENNIUM PHARMACEUTICALS, INC., priority 2011, published 2015).

What was measured:
Assay in all cases: Cell line panel 1 viability screen
Format in all cases: cell-based
[1] = tested on: ESS-1; settings: ESS-1 (Uterus)
Procedure: (§1) To support clinical development and identify potential biomarkers of tumor sensitivity or resistance, two large cancer cell line panels (Panel 1, N=653 (McDermott et al. (2007) PNAS 104:19936-19941); Panel 2, N=240 (O'Day et al. (2010) Fourth AACR International Conference on Molecular Diagnostics in Cancer Therapeutic Development)) were treated with MLN4924 and cell viability data (IC50, EC50, and POC—Percentage of Control) were generated.
(§2) Panel 1 (McDermott et al., supra). The cell lines were exposed to three MLN4924 concentrations (20 nM, 200 nM, and 2 μM) for 72 hours. Viability, i.e., cell number, was quantified by measuring fluorescence of a cell-permeant nucleic acid stain. Mean of triplicate values for each sample were taken and compared to DMSO control to calculate percentage of control. In the results, control or no activity value is given a value of about 1, sensitivity is indicated by a value less than 1, with 0 as death of the entire cell population and resistance indicated by a value greater than 1. A continuum of viability values was obtained for each concentration, so some values were selected as cut-offs for final determination of sensitivity or resistance. For example, median POC values of less than the median value of all POC's recorded in the panel (<0.34) indicated sensitivity, values of 0.34 to 0.75 indicated borderline sensitivity, values greater than the 3rd quartile of all POC's in the panel (>0.75) insensitivity or resistance. […] Final judgment of cell line as sensitive, insensitive or resistant was determined by its viability at 2 μM.

[2] = tested on: NCl-H1703; settings: NCl-H1703 (lung NSCLC); 2 μM MLN4924, 72 hours; DMSO control about 1
Procedure: as §1, §2

[3] = tested on: AN3CA; settings: AN3CA (Uterus)
Procedure: as §1, §2

[4] = tested on: SW 1116; settings: Homo sapiens; SW 1116 (intestine); 2 μM MLN4924, 72 hours; DMSO control about 1
Procedure: as §1, §2

[5] = tested on: S-117; settings: S-117 (soft_tissue)
Procedure: as §1, §2

[6] = tested on: CAL-62; settings: CAL-62 (thyroid)
Procedure: as §1, §2

[7] = tested on: CFPAC-1; settings: CFPAC-1 (pancreas)
Procedure: as §1, §2

[8] = tested on: HT55; settings: Homo sapiens; HT55 (intestine); 2 μM MLN4924, 72 hours; DMSO control about 1
Procedure: as §1, §2

[9] = tested on: T84; settings: Homo sapiens; T84 (intestine); 2 μM MLN4924, 72 hours; DMSO control about 1
Procedure: as §1, §2

[10] = tested on: HGC-27; settings: Homo sapiens; HGC-27 (stomach); 2 μM MLN4924, 72 hours; DMSO control about 1
Procedure: as §1, §2

[11] = tested on: PANC-08-13; settings: PANC-08-13 (pancreas)
Procedure: as §1, §2

[12] = tested on: CAL-33; settings: CAL-33 (upper aerodigestive tract)
Procedure: as §1, §2

[13] = tested on: BxPC-3; settings: BxPC-3 (pancreas)
Procedure: as §1, §2

[14] = tested on: YAPC; settings: YAPC (pancreas)
Procedure: as §1, §2

[15] = tested on: NCl-H520; settings: NCl-H520 (lung NSCLC); 2 μM MLN4924, 72 hours; DMSO control about 1
Procedure: as §1, §2

[16] = tested on: MIA-PaCa-2; settings: MIA-PaCa-2 (pancreas)
Procedure: as §1, §2

[17] = tested on: LK-2; settings: Homo sapiens; LK-2 (lung); 2 μM MLN4924, 72 hours; DMSO control about 1
Procedure: as §1, §2

[18] = tested on: SN12C; settings: SN12C (kidney)
Procedure: as §1, §2

[19] = tested on: MKN1; settings: MKN1 (Stomach)
Procedure: as §1, §2

[20] = tested on: KYSE-180; settings: KYSE-180 (oesophagus)
Procedure: as §1, §2

[21] = tested on: CaR-1; settings: CaR-1 (large_intestine)
Procedure: as §1, §2

[22] = tested on: C2BBe1; settings: Homo sapiens; C2BBe1 (intestine); 2 μM MLN4924, 72 hours; DMSO control about 1
Procedure: as §1, §2

[23] = tested on: SK-OV-3; settings: Homo sapiens; SK-OV-3 (ovary); 2 μM MLN4924, 72 hours; DMSO control about 1
Procedure: as §1, §2

[24] = Homo sapiens, 2 μM MLN4924, 72 hours, DMSO control about 1

**Q.** For `NS(=O)(=O)OC[C@@H]1C[C@@H](n2ccc3c(N[C@H]4CCc5ccccc54)ncnc32)C[C@@H]1O` [MLN4924, ((1S,2S,4R)-4-{4-[(1S)-2,3-dihydro-1H-inden-1-ylamino]-7H-pyrrolo[2,3-d]pyrimidin-7-yl}-2-hydroxycyclopentyl)methyl sulphamate], which Phenotype ([1]; FBXW7 mutant) is on record?
**A.** The Phenotype was “sensitive (median POC values of less than the median value of all POC's recorded in the panel (<0.34) indicated sensitivity)”.

**Q.** What about the viability at 2 µM [1, 24] of the same molecule?
**A.** Its viability at 2 µM is 5.29%.

**Q.** And the viability at 2 µM [2]?
**A.** Its viability at 2 µM is 11%.

**Q.** And the Phenotype ([3]; FBXW7 mutant)?
**A.** Its Phenotype is “sensitive (median POC values of less than the median value of all POC's recorded in the panel (<0.34) indicated sensitivity)”.

**Q.** And the viability at 2 µM ([3]; Homo sapiens, AN3-CA, 2 μM MLN4924, 72 hours, DMSO control about 1)?
**A.** Its viability at 2 µM is 19.4%.

**Q.** What about the viability at 2 µM [4] of the same molecule?
**A.** The viability at 2 µM was 116%.

**Q.** And the viability at 2 µM [5, 24]?
**A.** The viability at 2 µM was 64.1%.

**Q.** What about the Phenotype ([5]; NF2 mutant) of the same molecule?
**A.** Its Phenotype is “resistant (values greater than the 3rd quartile of all POC's in the panel (>0.75) insensitivity or resistance)”.

**Q.** And the Phenotype ([6]; NF2 mutant)?
**A.** Its Phenotype is “sensitive (median POC values of less than the median value of all POC's recorded in the panel (<0.34) indicated sensitivity)”.

**Q.** And the viability at 2 µM [6, 24]?
**A.** The viability at 2 µM was 6.76%.

**Q.** And the Phenotype ([7]; SMAD4 mutant)?
**A.** Its Phenotype is “sensitive?”.

**Q.** What about the viability at 2 µM [7, 24] of the same molecule?
**A.** The viability at 2 µM was 28.2%.

**Q.** What about the viability at 2 µM [8] of the same molecule?
**A.** The viability at 2 µM was 51.4%.

**Q.** What about the viability at 2 µM [9] of the same molecule?
**A.** Its viability at 2 µM is 57.8%.

**Q.** What about the viability at 2 µM [10] of the same molecule?
**A.** The viability at 2 µM was 12.9%.

**Q.** And the viability at 2 µM [11, 24]?
**A.** Its viability at 2 µM is 77.7%.

**Q.** What about the Phenotype ([11]; SMAD4 mutant) of the same molecule?
**A.** Its Phenotype is “resistant (values greater than the 3rd quartile of all POC's in the panel (>0.75) insensitivity or resistance)”.

**Q.** What about the Phenotype ([12]; SMAD4 mutant) of the same molecule?
**A.** Its Phenotype is “sensitive (median POC values of less than the median value of all POC's recorded in the panel (<0.34) indicated sensitivity)”.

**Q.** And the viability at 2 µM [12, 24]?
**A.** Its viability at 2 µM is 14.4%.

**Q.** And the Phenotype ([13]; SMAD4 mutant)?
**A.** The Phenotype was “insensitive (values of 0.34 to 0.75 indicated borderline sensitivity)”.

**Q.** And the viability at 2 µM [13, 24]?
**A.** Its viability at 2 µM is 41.9%.

**Q.** What about the viability at 2 µM [14, 24] of the same molecule?
**A.** The viability at 2 µM was 18.7%.

**Q.** And the Phenotype ([14]; SMAD4 mutant)?
**A.** Its Phenotype is “sensitive (median POC values of less than the median value of all POC's recorded in the panel (<0.34) indicated sensitivity)”.

**Q.** And the viability at 2 µM [15]?
**A.** Its viability at 2 µM is 55.8%.

**Q.** And the viability at 2 µM [16, 24]?
**A.** Its viability at 2 µM is 11.5%.

**Q.** What about the Phenotype ([16]; KDM6A mutant) of the same molecule?
**A.** The Phenotype was “sensitive (median POC values of less than the median value of all POC's recorded in the panel (<0.34) indicated sensitivity)”.

**Q.** What about the viability at 2 µM [17] of the same molecule?
**A.** Its viability at 2 µM is 28.9%.

**Q.** And the viability at 2 µM [18, 24]?
**A.** Its viability at 2 µM is 33.6%.

**Q.** What about the Phenotype ([18]; NF2 mutant) of the same molecule?
**A.** The Phenotype was “sensitive (median POC values of less than the median value of all POC's recorded in the panel (<0.34) indicated sensitivity)”.

**Q.** What about the viability at 2 µM ([19]; Homo sapiens, MKN-1, 2 μM MLN4924, 72 hours, DMSO control about 1) of the same molecule?
**A.** The viability at 2 µM was 46.3%.

**Q.** What about the Phenotype ([19]; FBXW7 mutant) of the same molecule?
**A.** Its Phenotype is “insensitive (values of 0.34 to 0.75 indicated borderline sensitivity)”.

**Q.** What about the viability at 2 µM [20, 24] of the same molecule?
**A.** The viability at 2 µM was 21.5%.

**Q.** What about the Phenotype ([20]; KDM6A mutant) of the same molecule?
**A.** The Phenotype was “sensitive (median POC values of less than the median value of all POC's recorded in the panel (<0.34) indicated sensitivity)”.

**Q.** What about the Phenotype ([21]; NF2 mutant) of the same molecule?
**A.** Its Phenotype is “sensitive (median POC values of less than the median value of all POC's recorded in the panel (<0.34) indicated sensitivity)”.

**Q.** What about the viability at 2 µM [21, 24] of the same molecule?
**A.** Its viability at 2 µM is 32.4%.

**Q.** What about the viability at 2 µM [22] of the same molecule?
**A.** Its viability at 2 µM is 71.6%.

**Q.** And the viability at 2 µM [23]?
**A.** The viability at 2 µM was 39.7%.
